The text below walks through data of patent US8222400B2, “Cyclodextrin compound modified with folic acid, process for production thereof, drug delivery agent for targeting drug delivery system, pharmaceutical composition, and imaging agent” (Nanodex Inc., priority 2007, dated 2012).

Series [1] is described as follows: SPR measurement of drug-inclusion association with immobilized DXR. It is filed as binding. The settings on record: SPR linear plot, DXR-immobilized cuvette. Here is the method: The capabilities of the CD compound of the invention were evaluated by the procedures similar to those of Experiment 7-1. An anticancer and antibiotic agent, doxorubicin (hereafter, referred to as “DXR”) was used as a drug.
Immobilization of DXR on the surface of an optical biosensor cuvette was performed by using the procedures similar to those of the above immobilization of FBP. A buffer with a different pH was used as a solvent for drugs.
An aminosilane group on the surface of the cuvette was reacted with a linker. 1 mM of the BS^3 solution/10 mM of phosphate buffer solution (pH 6.5) was used for the reaction. Then, an amino group of DXR was reacted with the other side of BS^3 linker. The steps were repeated one or more times until the response value became constant. An acetic anhydride-acetic acid solution (volume ratio 1:1) was injected into the cuvette to deactivate any remaining aminosilane groups and to block these. After the blocking, the solution was replaced by 10 mM acetic buffer (pH 5.3). The DXR solution (2 mg DXR/10 mM acetic buffer (pH5.3)) was added thereto. The reaction was carried out. […]
The kinetic behavior of the interaction of the exemplary compound 1 with DXR was measured by the procedures similar to those of Experiment 1. […]
(In general: In SPR one partner is held on a chip, and binding of the other changes the refractive index at the surface.)

The subject of another series is Caco-2 tumor cells. The series can be described thus: SPR measurement of interaction with immobilized Caco-2 tumor cells. Conditions: SPR linear plot, varied concentrations, Caco-2 cells-immobilized cuvette. Type of series: binding, human. The procedure: The SPR measurements of the exemplary compound 1 that bound to human colon cancer-derived Caco-2 cells and, as comparative target cells, normal rat liver cells were conducted by using the similar foregoing procedures. Each interaction was evaluated comparatively.
Experiment 6-1: The SPR measurements of the interaction with Caco-2 tumor cells The immobilization of Caco-2 cells was performed by the procedures similar to those of Example 5 <Immobilization of FBP>. Instead of using the solution that was used for the immobilization of FBP, the solution containing a suitable amount and concentration of the solution (phosphate buffer solution (pH 7.3)+0.85% NaCl) (manufactured by CORNING) containing Caco-2 cells was used as a fixative. In addition, to the Caco-2 cells-immobilized cuvette was added 200 μl of the exemplary compound 1 ([…]) that was dissolved in the phosphate buffer solution (pH 7.3)+0.85% NaCl. The SPR measurements were then carried out.
Experiment 7-1: The measurements of the interaction with Caco-2 tumor cells The immobilization of Caco-2 cells was performed by the procedures similar to those of Example 5 <Immobilization of FBP>. […]

Series [2] has as its target folate receptor protein (FBP) overexpressed on the surface of cancer cells (Homo sapiens, UniProt P15328). Conditions: from reviews (Wang and Low 1998; Low et al. 2008); cited from earlier work.
The target of series [3] is T1, folate binding proteins (FBP) (Bos taurus, UniProt P02702).
T1 construct: purchased SIGMA
The series can be described thus: SPR measurement of association with immobilized folate binding protein (FBP). The settings on record: each at 1.0×10^−6 M, 25.0° C. Here is the method:
Specifically, the ligand (e.g., folate-binding proteins) is immobilized on a cuvette, and the analyte (e.g., the cyclodextrin (CD) compound of the invention) that is dissolved in a buffer solution is injected into the above cuvette. Evanescent wave and surface plasmon wave excite the surface plasmon when the angle of incidence on a prism is […] the angle of total reflection. The angle of incidence is measured. The angle of incidence is changed depending on the mass within the evanescent field depth of 600 nm. The amount of the changes can be observed and refers to the response (R). This angle of incidence is proportional to the mass of the adsorbed molecule. In other words, these mass changes can indicate the interaction. The reagents used for immobilization were obtained as follows: • 1 mM BS^3 solution: 2.9 mg of Bis(sulfosuccinimidyl) suberate (BS^3) was dissolved into 5 ml of 10 mM phosphate buffer solution (pH 7.2); • a solution used for immobilization of FBP: 1 mg of FBP (manufactured by SIGMA) was dissolved into 1 ml of 10 mM phosphate buffer solution (pH 7.2). […] A saturation curve shown in FIG. 1 was obtained (measured at a temperature of 25.0° C.). […] The association characteristics of each compound that bound to FBP were evaluated.

T1 sequence (P02702 20-234): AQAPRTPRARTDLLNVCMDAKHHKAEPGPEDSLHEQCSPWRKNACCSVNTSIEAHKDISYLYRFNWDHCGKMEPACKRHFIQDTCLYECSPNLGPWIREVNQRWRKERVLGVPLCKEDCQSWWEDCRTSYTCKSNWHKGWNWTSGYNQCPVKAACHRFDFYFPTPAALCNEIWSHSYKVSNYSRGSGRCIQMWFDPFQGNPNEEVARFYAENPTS
folate receptor protein (FBP) overexpressed on the surface of cancer cells, sequence (P15328 25-234): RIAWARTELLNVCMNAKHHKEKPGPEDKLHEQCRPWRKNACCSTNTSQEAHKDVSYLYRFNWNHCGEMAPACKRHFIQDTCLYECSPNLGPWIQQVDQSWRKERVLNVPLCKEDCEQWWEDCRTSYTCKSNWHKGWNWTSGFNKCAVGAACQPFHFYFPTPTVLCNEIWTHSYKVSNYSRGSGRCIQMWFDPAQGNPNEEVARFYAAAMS

Consider `CNC(=O)CCC(NC(=O)c1ccc(NCc2cnc3nc(N)[nH]c(=O)c3n2)cc1)C(=O)O` (stereo not shown) [Comparative Compound 3], for which, in series [1], the “Association constant Ka (drug DXR)” value worked out at 2500 M⁻¹. For the same compound, in the series on Caco-2 tumor cells, the “Association constant Ka (receptor Caco-2)” value was 18000 M⁻¹.
For `Nc1nc2ncc(CNc3ccc(C(=O)N[C@@H](CCC(=O)O)C(=O)O)cc3)nc2c(=O)[nH]1` [folic acid], in series [2], the “Association constant for folate receptor protein (FBP)” value was 10^10 M^−1.
Consider `OC[C@H]1O[C@@H]2O[C@H]3[C@H](O)[C@@H](O)[C@@H](O[C@H]4[C@H](O)[C@@H](O)[C@@H](O[C@H]5[C@H](O)[C@@H](O)[C@@H](O[C@H]6[C@H](O)[C@@H](O)[C@@H](O[C@H]7[C@H](O)[C@@H](O)[C@@H](O[C@H]8[C@H](O)[C@@H](O)[C@@H](O[C@H]1[C@H](O)[C@H]2O)O[C@@H]8CO)O[C@@H]7CO)O[C@@H]6CO)O[C@@H]5CO)O[C@@H]4CO)O[C@@H]3CO` [unmodified β-CD, β-cyclodextrin], for which the “Interaction with FBP (SPR response, FIG. 1)” value in series [3] is “did not exhibit any interaction properties”.
